Experimental findings from patent US8945540B2, “Compositions for enhancing the antibacterial activity of myeloperoxidase and methods of use thereof” (Exoxemis, Inc., priority 2008, dated 2015) are described below.

Where two headings read alike, the source gives them in different places.

The subject of test [1] is Staphylococcus aureus. The test can be described thus: Microbicidal activity of the myeloperoxidase system (p-MPO, glucose oxidase, glucose) with amino acids in the presence of blood, CFU plate counts; synergy determination from these CFU. Format: cell-based. Conditions: for Average Viability CFU/ml 50 min / Log Reduction 50 min: MPO 4.7 U/ml, GO 4.2 U/ml. Summed up:
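Microbicidal activity of the MPO–glucose oxidase–glucose system against S. aureus with amino acids was assessed in 3% whole blood. Reactions of 1 mL were run at room temperature or 37° C and stopped with catalase. Surviving CFU were counted on trypticase soy agar. For each pair, Actual CFU was divided by Predicted CFU and multiplied by 100. This value was compared with variability-based thresholds to classify synergism, antagonism or additivity.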

The subject of test [2] is Staphylococcus aureus. Kind of test: Control: microbicidal activity of the amino acid or analogue alone (no glucose, MPO, glucose oxidase) in the presence of blood. Type of test: cell-based. Conditions: for log reduction at 5000 µM: Staphylococcus aureus, 1 h, read-out: Log Reduction 60 min. An excerpt:
As a control to determine the microbicidal activity of the amino acids alone, the foregoing procedure was followed without replication, except in the absence of glucose, MPO, and glucose oxidase.

Setting [3] is: MPO 100 μg/mL, AA 20 mM, 30 min.
Setting [4] is: MPO 100 μg/mL, AA 20 mM, 60 min.
[5] abbreviates: Table 2, amino acid 5 mM (none: 0 mM), MPO 38 U/ml, GO 33.3 U/ml, blood.
Where [6] appears, read: Table 13, single amino acid 2.5 mM, in the presence of blood, 50 min.
Setting [7] is: amino acid alone 5 mM, MPO 0, GO 0, no glucose, blood, without replication.
Where [8] appears, read: Table 5, amino acid 5 mM (none: 0 mM), MPO 38 U/ml, GO 33.3 U/ml, blood.
Setting [9] is: Table 10, single amino acid 2.5 mM, in the presence of blood, 50 min.
The mark [10] stands for this setting: Table 11, single amino acid 2.5 mM, in the presence of blood, 50 min.
Where [11] appears, read: Table 14, single amino acid 2.5 mM, in the presence of blood, 50 min.
Where [12] appears, read: Table 7, amino acid analogue 5 mM, MPO 38 U/ml, GO 33.3 U/ml, blood.
[13] abbreviates: amino acid analogue alone 5 mM, MPO 0, GO 0, no glucose, blood.
Setting [14] is: Table 19, amino acid (racemic, L- or D-form) 2.5 mM, 50 min.
Setting [15] is: single amino acid 2.5 mM, blood.

Turning to `C[C@@H](O)[C@H](N)C(=O)O` [L-Threonine], the “Log 10 (CFU + 1) Survivors” value is 7.3 with Staphylococcus aureus [1] (MPO 25 μg/mL, AA 5 mM, 30 min); 7.1 in the test on Staphylococcus aureus [1] (MPO 25 μg/mL, AA 5 mM, 60 min); 7.3 in the test with Staphylococcus aureus [1] (MPO 25 μg/mL, AA […], 30 min); 6.7 in the test on Staphylococcus aureus [1] (MPO 25 μg/mL, AA […], 60 min); 7.1 with Staphylococcus aureus [1] (MPO 100 μg/mL, AA 5 mM, 30 min); 5.5 with Staphylococcus aureus [1] (MPO 100 μg/mL, AA 5 mM, 60 min). For the same compound, the “Log 10 (CFU + 1) Survivors” value in the test on Staphylococcus aureus [1] (setting [3]) and in the test on Staphylococcus aureus [1] (setting [4]) was 7.3 throughout. Moreover, the “Average Viability CFU/ml 60 min” value with Staphylococcus aureus [1] (setting [5]) was 630000 CFU/ml; in the test on Staphylococcus aureus [2] (setting [7]), 23300000 CFU/ml. Besides, in the test with Staphylococcus aureus [1] (setting [5]), the “Log 10 (CFU + 1) Survivors 60 min” value turned out to be 5.8. Moreover, in the test with Staphylococcus aureus [1] (setting [5]), the “Log Reduction 60 min” value came to 1.6. Also, the “Average Viability CFU/ml 50 min” value with Staphylococcus aureus [1] (setting [6]) is 1415000 CFU/ml. Moreover, the “Log Reduction 50 min” value in the test on Staphylococcus aureus [1] (setting [6]) is reported as 1.2. Besides, the log reduction at 5000 µM with Staphylococcus aureus [2] (setting [7]) came out at 0.

Take `N=C(N)NCCC[C@@H](N)C(=O)O` [D-Arginine]: the “Log 10 (CFU + 1) Survivors” value in the test on Staphylococcus aureus [1] (MPO 25 μg/mL, AA 5 mM, 30 min) is listed as 6.9; in the test with Staphylococcus aureus [1] (MPO 25 μg/mL, AA 5 mM, 60 min), 6.7; with Staphylococcus aureus [1] (MPO 25 μg/mL, AA […], 30 min), 7.0; in the test on Staphylococcus aureus [1] (MPO 25 μg/mL, AA […], 60 min), 5.9; in the test on Staphylococcus aureus [1] (MPO 100 μg/mL, AA 5 mM, 30 min) it was 6.9; with Staphylococcus aureus [1] (MPO 100 μg/mL, AA 5 mM, 60 min), 0.0. Further, the figures for the “Log 10 (CFU + 1) Survivors” value in the test with Staphylococcus aureus [1] (setting [3]) and in the test with Staphylococcus aureus [1] (setting [4]) were 7.0 and 6.8, respectively. Further, the “Average Viability CFU/ml 60 min” value in the test with Staphylococcus aureus [1] (setting [8]) came to 0 CFU/ml; in the test with Staphylococcus aureus [2] (setting [7]), 21500000 CFU/ml. In addition, in the test with Staphylococcus aureus [1] (setting [8]), the “Log Reduction 60 min” value is 7.4. Moreover, the “Average Viability CFU/ml 50 min” value came out at 14200000 CFU/ml with Staphylococcus aureus [1] (setting [9]), 14650000 CFU/ml in the test on Staphylococcus aureus [1] (setting [10]) and 15000000 CFU/ml in the test with Staphylococcus aureus [1] (setting [11]). Moreover, the “Log Reduction 50 min” value with Staphylococcus aureus [1] (setting [9]) amounted to 0.2; in the test with Staphylococcus aureus [1] (setting [10]), 0.3; with Staphylococcus aureus [1] (setting [11]), 0.3. For the same compound, the “enhancement of MPO microbicidal activity (in words)” value in the test on Staphylococcus aureus [1] (amino acid 5 mM, MPO 38 U/ml, GO 33.3 U/ml, blood) is on record as “highly active”. The log reduction at 5000 µM in the test with Staphylococcus aureus [2] turned out to be 0.1.

For the compound `CCOC(=O)CCN.Cl` [Beta-Alanine ethyl ester hydrochloride], the “Average Viability CFU/ml 60 min” value stood at 1195000 CFU/ml in the test on Staphylococcus aureus [1] (setting [12]) and 23100000 CFU/ml with Staphylococcus aureus [2] (setting [13]). The “Log Reduction 60 min” value in the test with Staphylococcus aureus [1] (setting [12]) stood at 1.3. Moreover, in the test on Staphylococcus aureus [2], the log reduction at 5000 µM came out at 0.

Consider `CCOC(=O)[C@@H](N)C(C)C.Cl` [L-Valine ethyl ester hydrochloride], for which, in the test with Staphylococcus aureus [1] (setting [12]), the “Average Viability CFU/ml 60 min” value was found to be 0 CFU/ml and the “Log Reduction 60 min” value is on record as 7.4. Besides, in the test with Staphylococcus aureus [2] (setting [13]), the log reduction at 5000 µM was 0 and the “Average Viability CFU/ml 60 min” value worked out at 22300000 CFU/ml.

In the case of `N[C@@H](CS)C(=O)O` [L-Cysteine], in the test with Staphylococcus aureus [1] (setting [5]), the “Average Viability CFU/ml 60 min” value came to 17400000 CFU/ml, the “Log 10 (CFU + 1) Survivors 60 min” value is reported as 7.2 and the “Log Reduction 60 min” value worked out at 0.1. For the same compound, in the test on Staphylococcus aureus [2] (setting [7]), the log reduction at 5000 µM amounted to 0 and the “Average Viability CFU/ml 60 min” value was found to be 22400000 CFU/ml.

With `CC(C)[C@H](N)C(=O)O` [L-Valine], the “Log 10 (CFU + 1) Survivors” value in the test with Staphylococcus aureus [1] (MPO 25 μg/mL, AA 5 mM, 30 min) is 4.7; in the test with Staphylococcus aureus [1] (MPO 25 μg/mL, AA 5 mM, 60 min) it was 0.0; with Staphylococcus aureus [1] (MPO 25 μg/mL, AA […], 30 min), 4.8; in the test with Staphylococcus aureus [1] (MPO 25 μg/mL, AA […], 60 min), 0.0; with Staphylococcus aureus [1] (MPO 100 μg/mL, AA 5 mM, 30 min) it was 0.0; in the test on Staphylococcus aureus [1] (MPO 100 μg/mL, AA 5 mM, 60 min), 0.0. Moreover, the “Log 10 (CFU + 1) Survivors” value in the test with Staphylococcus aureus [1] (setting [3]) and in the test on Staphylococcus aureus [1] (setting [4]) was 0.0 throughout. In addition, the “Average Viability CFU/ml 60 min” value with Staphylococcus aureus [1] (setting [5]) amounted to 0 CFU/ml; with Staphylococcus aureus [2] (setting [7]) it was 23100000 CFU/ml. The “Log 10 (CFU + 1) Survivors 60 min” value in the test on Staphylococcus aureus [1] (setting [5]) is 0.0. Moreover, the “Log Reduction 60 min” value in the test with Staphylococcus aureus [1] (setting [5]) was 7.4. The “Average Viability CFU/ml 50 min” value in the test on Staphylococcus aureus [1] (setting [9]), in the test with Staphylococcus aureus [1] (setting [14]) and in the test with Staphylococcus aureus [1] (setting [15]) was 104500 CFU/ml each time. The “Log Reduction 50 min” value with Staphylococcus aureus [1] (setting [9]), in the test with Staphylococcus aureus [1] (setting [14]) and in the test on Staphylococcus aureus [1] (setting [15]) was 2.4 throughout. In addition, the log reduction at 5000 µM in the test with Staphylococcus aureus [2] (setting [7]) is 0.
